From patent US10610562B2, “Instant water soluble bioactive dietary phytonutrients composition of spice/herb extracts and a process for its preparation” (AKAY FLAVOURS & AROMATICS PVT. LTD, priority 2014, dated 2020)
≈ marks a conversion by molar mass, not a printed value.

Columns and labels:
[1] = Superoxide radical anion scavenging activity; type: biochemical
Method: McCord and Fridovich, (1969), measure super oxide radical anion scavenging activity. Briefly, 1 mg/mL spice extract stock solution was prepared in distilled water. The reaction mixture contained 200 μL KCN [dissolved in EDTA (6 mM)], 50 μL riboflavin (0.12 mM), 100 μL NBT (1.5 mM) and various concentrations (1-10 μg/mL) of the extract and add Phosphate buffer made up to 3 mL. The tubes containing the reaction mixture were uniformly illuminated with an incandescent lamp for 15 minutes. The absorbance was measured at 530 nm before and after the illumination. Percent inhibition of superoxide radical was calculated using the equation: […] Mix well and this was given to five volunteer for sensory evaluation. The sample was first de-oiled and its antioxidant level was check using DPPH, ABTS, & SOD method comparing with plain potato chips.

[2] = Hydroxyl radical scavenging activity; type: biochemical
Method: Hydroxyl radical scavenging activity of the extract was measured by following the method of Elizabeth and Rao, (1990). Briefly, 1 mg/mL spice extract stock solution was prepared in distilled water and mixed with the reaction mixture containing deoxyribose (2.8 mM), ferric chloride (0.1 mM) EDTA (0.1 mM), H2O2 (1 mM), ascorbate (0.1 mM), and KH2PO4—KOH (20 mM, pH 7.4) at various concentrations (1-10 μg/mL) to a total volume of 1 mL and incubated for 1 hr at 37° C. Absorbance of each solution was measured at 530 nm using a UV/VIS spectrophotometer against the distilled water as reference. From the absorbance of the control and test solution, percentage inhibition was calculated.

[3] = tested on: rat liver homogenate; assay: Lipid peroxidation assay; type: biochemical
Method: The level of lipid peroxidation was measured by the method of Ohkawa et al (1979). Briefly, 1 mg/mL spice extract stock solution was prepared in distilled water. Various concentrations (1-10 μg/mL) of extract were incubated with 0.1 mL rat liver homogenate (25%) containing 30 mM KCl, Tris-HCl buffer (0.04 M, pH 7.0), ascorbic acid (0.06 mM) and ferrous ion (0.16 mM) in a total volume 0.5 mL for 1 hr. After incubation, 0.4 mL of reaction mixture was treated with 0.2 mL SDS (8.1%), 1.5 mL TBA (0.8%) and 1.5 mL acetic acid (20%, pH 3.5) distilled water were kept for 1 hr in a boiling water bath at 100° C. […] Absorbance of the clear supernatant was measured at 532 nm against pyridine:butanol. Percent inhibition of lipid peroxidation was calculated using the equation: […]

[4] = DPPH assay; type: biochemical
Method: Briefly, various concentrations of the extract were added to 1 mL of freshly prepared DPPH solution in methanol. The reaction mixture was made up to 2 mL with methanol; incubated for 20 minutes; read at 515 nm against methanol as reference. The percentage inhibition was calculated and concentration needed for 50% inhibition was found out. […] Mix well and this was given to five volunteer for sensory evaluation. The sample was first de-oiled and its antioxidant level was check using DPPH, ABTS, & SOD method comparing with plain potato chips.

[5] = ABTS assay; type: biochemical
Method: Keep ABTS solution at Room temperature for 16 hours, and then store it at 4° C. (if not use). Take 500 μL, ABTS solution and add 50 mL PBS; adjust the OD to 0.7-0.8 against PBS as reference at 734 nm. Take 1 mL ABTS solution with different varies concentration of the extracts (1 mg/mL spice extract stock solution was prepared in distilled water) and made up to 2 mL with PBS. Keep the sample at room temperature for 6 minutes. The absorbance was measured at 734 nm. The results were calculated from the slopes of reaction curves obtained by plotting the absorbance Vs time. […] Mix well and this was given to five volunteer for sensory evaluation. The sample was first de-oiled and its antioxidant level was check using DPPH, ABTS, & SOD method comparing with plain potato chips.

[6] = tested on: carrageenan induced paw oedema; assay: In vivo anti-inflammatory potential, carrageenan induced paw oedema model; set-up: species or system Swiss albino mice; conditions: reference drug at dose 50 mg/kg body weight
Method: The animals for experimental model were taken from small breeding station of Amala Cancer Research Centre, Thrissur (Registration No. 149/99/CPCSEA) and […] Institute of Medical Science, Kochi (Registration No. 527/02/a/CPCSEA). The animals were kept in air-conditioned room at 22±2° C. and relative humidity […] with 12 hours day and light cycle, fed with normal mouse chow, a natural ingredient diet (Sai Feeds, India) and water ad libitum. All animal experiments were performed according to the rules and regulations of the Committee for the Purpose of Control and Supervision of Experiments on Animals (CPCSEA), Government of India. Five groups each contained six Male Swiss albino mice (25-30 g) in each group were injected with 25 μL of 1% suspension of carrageenan in 0.1% carboxy methylcellulose (CMC) sub-planetary into right hind paw. Paw volume was measured at various time intervals such as, paw volume before inflammation induction, then for 1, 2, 3, 4, 5 and 24 hours after carrageenan administration using a vernier calliper. Clove extract at doses 25, 50 and 100 mg/kg body weight was administered (orally) 1 hour prior to carrageenan injection. […] The percentages of inhibition were calculated according to the following formula. […] Where, VT-Paw oedema at various time intervals and Vo-Initial paw oedema [table]

SMILES	IC50, superoxide radical anion scavenging [1]	IC50, hydroxyl radical scavenging [2]	IC50, lipid peroxidation [3]	IC50, DPPH [4]	IC50, ABTS [5]	inhibition of paw oedema [6]
O=C1O[C@H]([C@@H](O)CO)C(O)=C1O [Vitamin C]	1900 µg/mL (≈ 10800 µM)	1550 µg/mL (≈ 8800 µM)	375 µg/mL (≈ 2130 µM)	14 µg/mL (≈ 79.5 µM)	2.25 µg/mL (≈ 12.8 µM)	
O=C(O)Cc1ccccc1Nc1c(Cl)cccc1Cl [diclofenac, Diclofenac]						56.70%
